The values that follow come from patent US20240091294A1, “Extract of Top Growth of Holy Basil, and Cosmetic or Dermatological Compositions Containing Same” (Laboratoires Expanscience, priority 2021, published 2024).

Usually inhibition stands for the relative decrease from the control value, in per cent.

The subject of assay [1] is normal human keratinocytes. The assay is described as follows: Menadione-induced ROS production in keratinocytes. To be noted: 10 mM, 24 h, Menadione 50 μM. The class given is cell-based. The method, then: (§1) Normal human keratinocytes, on the one hand, and normal human fibroblasts, on the other, were treated for 24 hours with the 0.001% and 0.005% dry matter (dm) holy basil extract obtained according to Example 1 or with 10 mM N-Acetyl Cysteine (NAC), a ROS scavenger molecule used as an antioxidant reference. […] ROS were labeled with the CellRox® probe; intracellular fluorescence, proportional to the amount of ROS, was measured. Results were statistically analyzed using a one-factor ANOVA, followed by a Dunnett's test.

Assay [2] has as its system normal human fibroblasts. The assay is described as follows: Menadione-induced ROS production in fibroblasts. In kind it is cell-based. The following applies: 10 mM, 24 h, Menadione 200 μM. The method, then:
as §1

Assay [3] has as its system normal human fibroblasts. The assay is described as follows: Glutathione (GSH) content in fibroblasts under menadione stress. In kind it is cell-based. To be noted: 10 mM, 24 h; Menadione 25 μM 4 h. The method, then:
Normal human fibroblasts were treated for 24 hours with 0.001% and 0.005% dm holy basil extract obtained according to Example 1 or with the antioxidant reference, 10 mM NAC. Oxidative stress was then induced by 4-hour incubation in the presence of 25 μM menadione. GSH stock was monitored using the fluorescent probe Monochlorobimane (Mbi); intracellular fluorescence, proportional to the amount of GSH, was measured.

Assay [4] concerns normal human epidermal keratinocytes. The assay is described as follows: γH2AX expression (DNA double-strand breaks) in keratinocytes under camptothecin stress. The class given is cell-based. The following applies: reference, 24 h pre-incubation; camptothecin 1 h. The method, then: Normal human epidermal keratinocytes were pre-incubated for 24 hours in the presence of the holy basil extract obtained in Example 1 at 0.001% and 0.005% dm or the reference nicotinamide, prior to 1-hour exposure to camptothecin. Camptothecin is a genotoxic compound, a toposiomerase I inhibitor, used for the induction of DNA double-strand breaks. Double-strand breaks were detected by immunostaining of γH2AX (phosphorylation of histone H2AX which intervenes early in response to double-strand breaks) and quantified by image analysis. Results were statistically analyzed using an ANOVA followed by a Tukey test.

Assay [5] deals with normal human keratinocytes. Nature of the assay: H2O2-induced ROS production in normal human keratinocytes. In kind it is cell-based. The following applies: 24 h, H2O2 100 μM 20 min. The method, then: Quercetin at 10 μM or Vitamin C at 500 μM, before incorporation of the H2DCF-DA probe. Keratinocytes were then stimulated with 100 μM hydrogen peroxide (H2O2) for 20 minutes. ROS production was assessed by measuring the fluorescence emitted by the probe on contact with ROS. Results were statistically analyzed using a one-way ANOVA followed by a Tukey test.

In assay [6] the test system is normal human epidermal keratinocytes. Nature of the assay: Aquaporin-3 production in keratinocytes (immunostaining). In kind it is cell-based. The following applies: reference, 24 h. The method, then: Normal human epidermal keratinocytes were incubated for 24 hours in the presence of the holy basil extract obtained in Example 1 at 0.001% and 0.005% dm or retinoic acid, positive reference. Aquaporin-3 expression was assessed by immunostaining and quantified by image analysis.

A further assay concerns reconstructed epidermis. The assay is described as follows: IL1α produced by PMA-stimulated reconstructed epidermis. In kind it is cell-based, human. To be noted: systemic, 24 h pre-incubation, PMA 0.5 μg/ml 24 h. The method, then:
[…] After 24 hours pre-incubation, the epidermis was stimulated with 0.5 μg/mL PMA and incubated again for 24 hours.
Culture supernatants were collected, an IL1α assay was performed on the one hand and, on the other, these supernatants (conditioned media) were plated onto cultures of normal human dermal fibroblasts.
Results were statistically analyzed using an ANOVA followed by a Tukey test.

Assay [7] concerns normal human keratinocytes. Nature of the assay: IL8 produced by keratinocytes under PMA-induced inflammatory stress (ELISA). In kind it is cell-based. The following applies: 24 h pre-incubation, PMA 10 μg/ml 24 h. The method, then: Normal human keratinocytes were pre-incubated for 24 hours in the presence of holy basil extract obtained according to Example 1 at 0.001%, 0.005% or 0.01% dm or dexamethasone at 0.1 μM, an anti-inflammatory reference. The cells were then stimulated by 24-hour treatment in the presence of 10 μg/mL PMA (Phorbol-Myristate-Acetate).
At the end of treatment, the IL8 produced was quantified by ELISA assay in the culture supernatants.
Results were analyzed statistically using the Student t-test.
For orientation: ELISA stands for enzyme-linked immunosorbent assay.

Assay [8] relates to normal human dermal fibroblasts. Nature of the assay: Gene expression of dermal matrix markers in fibroblasts (qPCR). To be noted: 5 ng/ml, 48 h. In kind it is cell-based. The method, then:
Normal human dermal fibroblasts were incubated for 48 hours in the presence of holy basil extract obtained according to Example 1 at 0.001% and 0.005% dm or TGFβ1 at 5 ng/ml, the positive assay reference.
Gene expression of Collagen I, Elastin, Dermatopontin and MMP1 (Matrix-Metalloproteinase-1) was assessed by real-time quantitative PCR.
Results were statistically analyzed using a one-factor analysis of variance (ANOVA), followed by a Dunnett's post-test.

Assay [9] relates to normal human keratinocytes. Nature of the assay: Lipid peroxidation in keratinocytes under cumene hydroperoxide stress. The class given is cell-based. The following applies: 200 μM, 24 h, Cumene 200 μM. The method, then:
(§2) Normal human keratinocytes, on the one hand, and normal human fibroblasts, on the other, were treated for 24 hours with the 0.001% and 0.005% dm holy basil extract obtained according to example 1 or with the antioxidant reference, vitamin E at 200 μM. Oxidative stress was then induced by incubation for 1 hour in the presence of cumene hydroperoxide at 200 or 50 μM.
(§3) Results were statistically analyzed using a one-way ANOVA followed by a Tukey test.

The subject of assay [10] is normal human fibroblasts. Nature of the assay: Lipid peroxidation in fibroblasts under cumene hydroperoxide stress. In kind it is cell-based. To be noted: 200 μM, 24 h, Cumene 50 μM. The method, then: as §2, §3

Take `CC(=O)N[C@@H](CS)C(=O)O` [NAC, N-Acetyl Cysteine]: the “ROS (Arbitrary units)” value in [1] stood at 2490 ± 94.3 Arbitrary units; in the assay on normal human fibroblasts [2], 3114 ± 14.2 Arbitrary units. The inhibition at 10000 µM worked out at 100% in assay [1] (Homo sapiens, Keratinocyte) and 50% with normal human fibroblasts [2] (Homo sapiens, Fibroblast). In addition, in the assay with normal human fibroblasts [3], the “GSH (Arbitrary units)” value is 4997.7 ± 947.2 Arbitrary units. Moreover, the “Increase of GSH” value in the assay with normal human fibroblasts [3] is reported as 44%.
For the compound `NC(=O)c1cccnc1` [Nicotinamide, nicotinamide], in assay [4], the “Inhibition of γH2AX expression” value is −106% and the “γH2AX, Cy5 (Intensity)” value is reported as 3052.8 Intensity.
In the case of `O=c1c(O)c(-c2ccc(O)c(O)c2)oc2cc(O)cc(O)c12` [Quercetin], in assay [5] (10 μM), the “ROS (Fluorescence units)” value is 17453.8 ± 2880.6 Fluorescence units. Further, in assay [5] (Homo sapiens, Keratinocyte, 10 μM), the inhibition at 10 µM came to 85%.
For the compound `CC1=C(/C=C/C(C)=C/C=C/C(C)=C/C(=O)O)C(C)(C)CCC1` [Retinoic acid, retinoic acid], in [6], the “Aquaporin-3 (% of positive cells)” value is reported as 0.323 ± 0.004 % of positive cells and the “Increase of Aquaporin-3” value is given as “+45%”.
With `O=C1O[C@H]([C@@H](O)CO)C(O)=C1O` [Vitamin C], in assay [5] (500 μM), the “ROS (Fluorescence units)” value turned out to be 7165.2 ± 586.2 Fluorescence units. Also, the inhibition at 500 µM in [5] (Homo sapiens, Keratinocyte, 500 μM) was found to be 102%.
For the compound `C[C@@H]1C[C@H]2[C@@H]3CCC4=CC(=O)C=C[C@]4(C)[C@@]3(F)[C@@H](O)C[C@]2(C)[C@@]1(O)C(=O)CO` [dexamethasone], in the assay on reconstructed epidermis (10 μM), the “Interleukine-1 alpha” value stood at 334 ± 41 pg/mL. Also, the inhibition at 10 µM with reconstructed epidermis (Homo sapiens, read-out: Inhibition of IL1α release) stood at 48%. For the same compound, the “IL8” value in assay [7] (0.1 μM) came out at 4194.4 ± 814.1 pg/mL. In [7] (Homo sapiens, Keratinocyte, read-out: Inhibition of IL8 production), the inhibition at 0.1 µM turned out to be 40%.
On to “TGFB1: TGFβ1 at 5 ng/ml, the positive assay reference”, for which, in [8], the “Collagen I gene expression (Relative quantity)” value was found to be 10.86 ± 4.17, the “Dermatopontin gene expression (Relative quantity)” value stood at 43.17 ± 5.97, the “Elastin gene expression (Relative quantity)” value is given as 67.5 ± 20.55 and the “MMP1 gene expression (Relative quantity)” value turned out to be 0.33 ± 0.13. In addition, in assay [8] (vs control cells), the “Collagen I gene expression (% of induction)” value was “+786%”, the “Dermatopontin gene expression (% of induction)” value is “+5001%”, the “Elastin gene expression (% of induction)” value is “+8148%” and the “MMP1 gene expression (% of induction)” value is −65%.
As to vitamin E, in [9], the “Inhibition of lipid peroxidation” value was found to be 93% and the “Peroxidized lipids (Arbitrary units)” value turned out to be 4485.3 ± 43.3 Arbitrary units. Further, in the assay on normal human fibroblasts [10], the “Inhibition of lipid peroxidation” value was determined as 71% and the “Peroxidized lipids (Arbitrary units)” value amounted to 11413.4 ± 69.4 Arbitrary units.
